From US20040034107A1, “Ubiquinone Qn for the treatment of pain” (MSE Pharmazeutika GmbH, priority 1999, published 2004)

What was measured:
[1] = treatment of migraine pain with Q-10; assay type: in vivo
Method: The substances to be used according to the invention can be preferably employed for the treatment of pain which is caused by migraine, dialysis, herpes zoster, cancer, diabetic neuropathy, or generalized pain conditions. The treatment can be done by administration in oral, parenteral, local, inhalative or intranasal form. The kind of administration must be adapted to the pain condition to be treated. […] Good results were achieved already with doses of about 20 mg.
Due to the low dose which is already effective for treating migraine pain, the ubiquinone Qn or its precursors are preferably used in the form of a spray, preferably a nasal spray, according to the invention.

[2] = local treatment of herpes zoster pain; assay type: in vivo; conditions: local application in the form of creams or gels
Description: In the case of herpes zoster, even the local application of Q-10 in the form of creams or gels has even proven useful. It is critical that sufficient amounts of the ubiquinones or ubiquinone precursors arrive at the place in which the pain caused by disturbances of the signal transmission of the nerve system has its origin.

COC1=C(OC)C(=O)C(C/C=C(\C)CC/C=C(\C)CC/C=C(\C)CC/C=C(\C)CC/C=C(\C)CC/C=C(\C)CC/C=C(\C)CC/C=C(\C)CC/C=C(\C)CCC=C(C)C)=C(C)C1=O [Q-10, 2,3-dimethoxy-5-methyl-6-decaprenyl-1,4-benzoquinone]
treatment of migraine ([1]; oral administration, high doses): only with very limited success | elimination of migraine pain ([1]; oral and nasal sprays, small amounts): fast and effective elimination of migraine pain | results in migraine pain ([1]; sprays, doses of about 20 mg): Good results | treatment of herpes zoster pain [2]: proven useful
